Assay results taken from patent US11708348B2, “Protease inhibitors for treatment of coronavirus infections” (The Scripps Research Institute, priority 2021, dated 2023).

System: SARS-CoV-2 strain USA-WA1/2020
Experiment: microbe, parasite or virus in culture
Type: cell-based
Conditions: Severe acute respiratory syndrome coronavirus 2, HeLa-ACE2, 24 h, HeLa-ACE2 cells, SARS-CoV-2 infection, 24 h; class symbols; read-out: EC50, uM (Hela)

First: CC(C)C[C@H](NC(=O)c1ccc2c(c1)OCO2)C(=O)N[C@@H](C[C@@H]1CCNC1=O)C(=O)COC(F)(F)F [Compound 168, N-((S)-4-methyl-1-oxo-1-(((S)-3-oxo-1-((S)-2-oxopyrrolidin-3-yl)-4-(trifluoromethoxy)butan-2-yl)amino)pentan-2-yl)benzo[d][l,3]dioxole-5-carboxamide]
Second: O=C1NCC[C@H]1C[C@H](NC(=O)[C@H](CC1CC1)NC(=O)[C@H]1CCCO1)C(=O)COC(F)(F)F [Compound 300, (R)-N-((S)-3-cyclopropyl-1-oxo-1-(((S)-3-oxo-1-((S)-2-oxopyrrolidin-3-yl)-4-(trifluoromethoxy)butan-2-yl)amino)propan-2-yl)tetrahydrofuran-2-carboxamide]
The EC50 of the first is higher: 0.05 to 0.2 µM for the first, < 0.05 µM for the second.

`CC(C)CC[C@H](NC(=O)C(=O)Nc1ccccc1)C(=O)N[C@@H](C[C@@H]1CCNC1=O)C(=O)COc1c(F)c(F)cc(F)c1F` [Compound 36, N1-((S)-5-methyl-1-oxo-1-(((S)-3-oxo-1-((S)-2-oxopyrrolidin-3-yl)-4-(2,3,5,6-tetrafluorophenoxy)butan-2-yl)amino)hexan-2-yl)-N2-phenyloxalamide] and `O=C(Nc1ccccc1F)C(=O)NC(CC1CCOCC1)C(=O)N[C@@H](C[C@@H]1CCNC1=O)C(=O)COC(F)(F)F` (stereo partly drawn) [Compound 271, N1-(2-fluorophenyl)-N2-(1-oxo-1-(((S)-3-oxo-1-((S)-2-oxopyrrolidin-3-yl)-4-(trifluoromethoxy)butan-2-yl)amino)-3-(tetrahydro-2H-pyran-4-yl)propan-2-yl)oxalamide] cannot be ordered by EC50: < 0.05 µM for the first, < 0.05 µM for the second.

Same assay, conditions: Severe acute respiratory syndrome coronavirus 2, HeLa-ACE2, 24 h, HeLa-ACE2 cells, SARS-CoV-2 infection, 24 h; read-out: EC50, uM (Hela)

`CCNC(=O)C(=O)N1CC2(CC2)C[C@H]1C(=O)N[C@@H](C[C@@H]1CCNC1=O)C(=O)COC(F)(F)F` [Compound 749, (S)-5-(2-(ethylamino)-2-oxoacetyl)-N-((S)-3-oxo-1-((S)-2-oxopyrrolidin-3-yl)-4-(trifluoromethoxy)butan-2-yl)-5-azaspiro[2.4]heptane-6-carboxamide] and `CC1(C)[C@@H]2[C@@H](C(=O)N[C@@H](C[C@@H]3CCNC3=O)C(=O)COC(F)(F)F)N(C(=O)C(=O)NC3CC(F)(F)C3)C[C@@H]21` [Compound 536, (1R,2S,5S)-3-(2-((3,3-difluorocyclo-butyl)amino)-2-oxoacetyl)-6,6-dimethyl-N-((S)-3-oxo-1-((S)-2-oxopyrrolidin-3-yl)-4-(trifluoromethoxy)butan-2-yl)-3-azabicyclo-[3.1.0]hexane-2-carboxamide] fall in the same range of EC50: 0.05 to 0.2 µM for the first, 0.05 to 0.2 µM for the second.

First: CC(C)(C)C[C@H](NC(=O)c1cnc(C(F)(F)F)s1)C(=O)N[C@@H](C[C@@H]1CCNC1=O)C(=O)COC(F)(F)F [Compound 538, N-((S)-4,4-dimethyl-1-oxo-1-(((S)-3-oxo-1-((S)-2-oxopyrrolidin-3-yl)-4-(trifluoromethoxy)butan-2-yl)amino)pentan-2-yl)-2-(trifluoromethyl)-thiazole-5-carboxamide]
Second: O=C(N[C@@H](CC1CC1)C(=O)N[C@@H](C[C@@H]1CCNC1=O)C(=O)COC(F)(F)F)C(=O)NC1(C(F)(F)F)CC1 [Compound 512, N1-((S)-3-cyclopropyl-1-oxo-1-(((S)-3-oxo-1-((S)-2-oxopyrrolidin-3-yl)-4-(trifluoromethoxy)butan-2-yl)amino)propan-2-yl)-N2-(1-(trifluoromethyl)-cyclopropyl)-oxalamide]
The EC50 of the first is lower: < 0.05 µM for the first, 0.05 to 0.2 µM for the second. The first is the more potent here.

For `CC(C)C[C@@H](O)C(=O)N1C[C@H](C)C[C@H]1C(=O)N[C@@H](C[C@@H]1CCNC1=O)C(=O)COC(F)(F)F` [Compound 753, (2S,4R)-1-((R)-2-hydroxy-4-methylpentanoyl)-4-methyl-N-((S)-3-oxo-1-((S)-2-oxopyrrolidin-3-yl)-4-(trifluoromethoxy)butan-2-yl)pyrrolidine-2-carboxamide], the EC50 was < 0.05 µM.
